Reference: US10221173B2, “Chemical compounds” (AstraZeneca AB, priority 2017, dated 2019)
In brackets after ≈: the same amount, converted by molar mass.

Experiments:
[1] = target: recombinant human Estrogen Receptor alpha ligand binding domain (ER alpha-LBD (GST)) (Homo sapiens (Human), UniProt P03372); experiment: ERα binding assay (LanthaScreen TR-FRET competition)
[2] = target: Estrogen Receptor (ERα) in MCF-7 cells (Homo sapiens (Human), UniProt P03372); experiment: MCF-7 ER down-regulation assay (immuno-fluorescence); format: cell-based; details: for % downregulation (in brackets): maximum downregulation
Sequence of Estrogen Receptor (ERα) in MCF-7 cells (P03372 whole entry): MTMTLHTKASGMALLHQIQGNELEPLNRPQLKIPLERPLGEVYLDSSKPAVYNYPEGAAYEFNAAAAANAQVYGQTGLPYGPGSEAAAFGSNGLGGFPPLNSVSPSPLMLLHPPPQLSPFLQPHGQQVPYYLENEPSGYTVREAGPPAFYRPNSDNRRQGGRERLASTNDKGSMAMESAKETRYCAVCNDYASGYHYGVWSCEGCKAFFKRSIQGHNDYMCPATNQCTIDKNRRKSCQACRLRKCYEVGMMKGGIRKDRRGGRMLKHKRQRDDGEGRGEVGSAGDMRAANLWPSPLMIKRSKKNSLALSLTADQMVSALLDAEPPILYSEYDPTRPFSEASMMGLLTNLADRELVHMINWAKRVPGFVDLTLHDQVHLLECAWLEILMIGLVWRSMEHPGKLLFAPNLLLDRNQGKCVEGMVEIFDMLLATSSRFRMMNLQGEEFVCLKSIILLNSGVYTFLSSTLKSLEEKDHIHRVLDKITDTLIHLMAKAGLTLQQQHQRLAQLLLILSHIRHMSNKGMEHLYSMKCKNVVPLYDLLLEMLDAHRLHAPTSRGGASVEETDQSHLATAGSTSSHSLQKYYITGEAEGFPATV
Experimental: The ability of compounds to down-regulate Estrogen Receptor (ER) numbers was assessed in a cell based immuno-fluorescence assay using the MCF-7 human ductal carcinoma breast cell line. MCF-7 cells were revived directly from a cryovial (approx 5×10^6 cells) in Assay Medium (phenol red free Dulbecco's Modified Eagle's medium (DMEM); Sigma D5921) containing 2 mM L-Glutamine and 5% (v/v) Charcoal/Dextran treated foetal calf serum. Cells were syringed once using a sterile 18G×1.5 inch (1.2×40 mm) broad gauge needle and cell density was measured using a Coulter Counter (Beckman). […] Following cell seeding, plates were incubated overnight at 37° C., 5% CO2 (Liconic carousel incubator). Test data was generated using the LabCyte Echomodel 555 compound reformatter which is part of an automated workcell (Integrated Echo 2 workcell). Compound stock solutions (10 mM) of the test compounds were used to generate a 384 well compound dosing plate (Labcyte P-05525-CV1). […] 40 μL of DMSO added to wells in row P on the source plate allowed for DMSO normalisation across the dose range. To dose the control wells 40 μL of DMSO was added to row O1 and 40 μL of 100 μM fulvestrant in DMSO was added to row O3 on the compound source plate.
The Echo uses acoustic technology to perform direct microplate-to-microplate transfers of DMSO compound solutions to assay plates. The system can be programmed to transfer volumes as low as 2.5 nL in multiple increments between microplates and in so doing generates a serial dilution of compound in the assay plate which is then back-filled to normalise the DMSO concentration across the dilution range. […] The fixing method described above was carried out on the Integrated Echo 2 workcell. Immunostaining was performed using an automated AutoElisa workcell. The PBS/Proclin was aspirated from all wells and the cells permeabilised with 40 μL PBS containing 0.5% Tween™ 20 (v/v) for 1 hour at room temperature. The plates were washed three times in 250 μL of PBS/0.05% (v/v) Tween 20 with Proclin (PBST with a Biocide preservative) and then 20 μL of ERα (SP1) Rabbit monoclonal antibody (Thermofisher) 1:1000 in PBS/Tween™/3% (w/v) Bovine Serum Albumin was added. The plates were incubated overnight at 4° C. (Liconic carousel incubator) and then washed three times in 250 μL of PBS/0.05% (v/v) Tween™ 20 with Proclin (PBST). The plates were then incubated with 20 μL/well of a goat anti-rabbit IgG AlexaFluor 594 or goat anti-rabbit AlexaFluor 488 antibody (Molecular Probes) with Hoechst at 1:5000 in PBS/Tween™/3% (w/v) Bovine Serum Albumin for 1 hour at room temperature. The plates were then washed three times in 250 μL of PBS/0.05% (v/v) Tween™ 20 with Proclin (PBST with a Biocide preservative). 20 μL of PBS was added to each well and the plates covered with a black plate seal and stored at 4° C. before being read. […] The mean total intensity was normalized for cell number giving the total intensity per cell. The data was exported into a suitable software package (such as Origin) to perform curve fitting analysis.

[3] = Log D (shake flask, 1-octanol/aqueous buffer); format: physicochemical
[4] = Thermodynamic solubility (shake-flask); format: physicochemical; details: phosphate buffer pH 7.4, 24 hours
[5] = Human plasma protein binding (equilibrium dialysis); format: in vitro ADME
[6] = 1-octanol/aqueous buffer, pH 7.4, pH 7.4
[7] = aqueous phosphate buffer, 25 °C, pH 7.4, aqueous buffer, thermodynamic from solid

Sequence of recombinant human Estrogen Receptor alpha ligand binding domain (ER alpha-LBD (GST)) (P03372 307-554): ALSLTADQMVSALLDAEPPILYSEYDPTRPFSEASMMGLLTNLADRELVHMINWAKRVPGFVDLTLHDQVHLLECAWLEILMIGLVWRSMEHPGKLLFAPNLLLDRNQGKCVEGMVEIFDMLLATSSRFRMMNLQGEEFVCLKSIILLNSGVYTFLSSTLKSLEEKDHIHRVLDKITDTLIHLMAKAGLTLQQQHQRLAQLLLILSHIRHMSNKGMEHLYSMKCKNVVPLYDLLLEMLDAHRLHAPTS

Structure (SMILES) | IC50 [1] | IC50 [2] | logD [3, 6] | solubility at 24 h [4, 7] | Human plasma protein binding (% free) [5] | logD ([3]; pH 7.4) | solubility at 24 h ([4]; aqueous buffer, thermodynamic from solid, 25° C.) | LogD pH 7.4 ([3]; pH 7.4) | solubility at 24 h ([4]; 25° C.) | % downregulation (in brackets) [2]
Cc1c([C@@H]2c3[nH]c4ccccc4c3C[C@@H](C)N2CC(F)(F)F)ccnc1OCCNCCCF [Example 106, 3-fluoro-N-(2-((3-methyl-4-((1R,3R)-3-methyl-2-(2,2,2-trifluoroethyl)-2,3,4,9-tetrahydro-1H-pyrido[3,4-b]indol-1-yl)pyridin-2-yl)oxy)ethyl)propan-1-amine] | 0.92 nM | 0.095 nM | 3.9 | 264 µM (≈ 126 µg/mL) | 0.34 % free | – | – | – | – | –
C[C@@H]1Cc2c([nH]c3ccc(F)cc23)[C@@H](c2c(F)cnc(OCCNCCCF)c2F)N1CC1(F)CC1 [Example 109, N-(2-((3,5-difluoro-4-((1R,3R)-6-fluoro-2-((1-fluorocyclopropyl)methyl)-3-methyl-2,3,4,9-tetrahydro-1H-pyrido[3,4-b]indol-1-yl)pyridin-2-yl)oxy)ethyl)-3-fluoropropan-1-amine] | 1.2 nM | 0.41 nM | > 3.6 | 176 µM (≈ 89.5 µg/mL) | 1.9 % free | – | – | – | – | –
COc1ccc(OCCNCCCF)c(F)c1[C@@H]1c2[nH]c3ccccc3c2C[C@@H](C)N1CC(F)F [Example 82, N-(2-(3-((1R,3R)-2-(2,2-difluoroethyl)-3-methyl-2,3,4,9-tetrahydro-1H-pyrido[3,4-b]indol-1-yl)-2-fluoro-4-methoxyphenoxy)ethyl)-3-fluoropropan-1-amine] | 0.8 nM | 0.042 nM | – | – | 1.9 % free | 2.9 | 475 µM (≈ 234 µg/mL) | – | – | –
Cc1c(OCCNCCCF)ncnc1[C@@H]1c2[nH]c3ccccc3c2C[C@@H](C)N1CC(F)(F)CO [Example 115, 2,2-difluoro-3-((1S,3R)-1-(6-(2-((3-fluoropropyl)amino)ethoxy)-5-methylpyrimidin-4-yl)-3-methyl-1,3,4,9-tetrahydro-2H-pyrido[3,4-b]indol-2-yl)propan-1-ol] | 1 nM | 0.31 nM | 2.1 | 983 µM (≈ 483 µg/mL) | 11 % free | – | – | – | – | –
CC(CN1[C@H](c2c(Cl)ccc(OCCNCCCF)c2Cl)c2[nH]c3ccc(F)cc3c2C[C@H]1C)C(=O)O (single isomer, unassigned) [Example 130] | 1.8 nM | 1.3 nM | – | – | 7.8 % free | – | – | 1.5 | 854 µM (≈ 474 µg/mL) | –
CC(CN1[C@H](c2c(Cl)ccc(OCCNCCCF)c2Cl)c2[nH]c3ccc(F)cc3c2C[C@H]1C)C(=O)O (single isomer, unassigned) [Example 129] | 8.9 nM | 2.6 nM | 1.5 | 953 µM (≈ 528 µg/mL) | 23 % free | – | – | – | – | –
COc1cc(F)c(OCCNCCCF)cc1[C@@H]1c2[nH]c3ccccc3c2C[C@@H](C)N1CC(F)(F)F [Example 28, 3-fluoro-N-(2-(2-fluoro-4-methoxy-5-((1R,3R)-3-methyl-2-(2,2,2-trifluoroethyl)-2,3,4,9-tetrahydro-1H-pyrido[3,4-b]indol-1-yl)phenoxy)ethyl)propan-1-amine] | 2.8 nM | 0.8 nM | 3.8 | 40 µM (≈ 20.5 µg/mL) | 1.2 % free | – | – | – | – | –
Cc1c(OCCNCCCF)ccc(F)c1[C@@H]1c2[nH]c3ccccc3c2CC(C)(C)N1C[C@H](C)C(=O)O [Example 134, (S)-3-((R)-1-(6-fluoro-3-(2-((3-fluoropropyl)amino)ethoxy)-2-methylphenyl)-3,3-dimethyl-1,3,4,9-tetrahydro-2H-pyrido[3,4-b]indol-2-yl)-2-methylpropanoic acid] | 5.8 nM | 1.6 nM | 0.6 | > 1000 µM | 36 % free | – | – | – | – | 85%
C[C@@H]1Cc2c([nH]c3ccccc23)[C@@H](c2cncc(OCCNCCCF)c2)N1CC(F)(F)F [Example 101, 3-fluoro-N-(2-((5-((1R,3R)-3-methyl-2-(2,2,2-trifluoroethyl)-2,3,4,9-tetrahydro-1H-pyrido[3,4-b]indol-1-yl)pyridin-3-yl)oxy)ethyl)propan-1-amine] | 9.2 nM | 27 nM | 3.3 | 329 µM (≈ 153 µg/mL) | 8.4 % free | – | – | – | – | –
Cc1c(OCCNCCCF)ccc(F)c1[C@@H]1c2[nH]c3ccccc3c2C[C@@H](C)N1CC(F)(F)C(=O)O [Example 118, 2,2-difluoro-3-((1R,3R)-1-(6-fluoro-3-(2-((3-fluoropropyl)amino)ethoxy)-2-methylphenyl)-3-methyl-1,3,4,9-tetrahydro-2H-pyrido[3,4-b]indol-2-yl)propanoic acid] | 1.2 nM | 5.5 nM | 1.8 | 111 µM (≈ 57.9 µg/mL) | 8.4 % free | – | – | – | – | –
Cc1c(OCCN(C)CCCF)ccc(F)c1[C@@H]1c2[nH]c3ccccc3c2C[C@@H](C)N1CCC(=O)O [Example 163, 3-((1R,3R)-1-(6-fluoro-3-(2-((3-fluoropropyl)(methyl)amino)ethoxy)-2-methylphenyl)-3-methyl-1,3,4,9-tetrahydro-2H-pyrido[3,4-b]indol-2-yl)propanoic acid] | 3.3 nM | 1.2 nM | 0.7 | > 1000 µM | 49 % free | – | – | – | – | –
C[C@@H]1Cc2c([nH]c3ccccc23)[C@@H](c2c(F)ccc(OCCN(C)CCCF)c2C(F)F)N1C[C@H](C)C(=O)O [Example 148, (S)-3-((1R,3R)-1-(2-(difluoromethyl)-6-fluoro-3-(2-((3-fluoropropyl)(methyl)amino)ethoxy)phenyl)-3-methyl-1,3,4,9-tetrahydro-2H-pyrido[3,4-b]indol-2-yl)-2-methylpropanoic acid] | 1.1 nM | 0.42 nM | 1.5 | 788 µM (≈ 433 µg/mL) | 10 % free | – | – | – | – | 68%
COc1ccc(OCCNCCCF)nc1[C@@H]1c2[nH]c3ccccc3c2C[C@@H](C)N1CC(F)(F)F [Example 56, 3-fluoro-N-(2-((5-methoxy-6-((1S,3R)-3-methyl-2-(2,2,2-trifluoroethyl)-2,3,4,9-tetrahydro-1H-pyrido[3,4-b]indol-1-yl)pyridin-2-yl)oxy)ethyl)propan-1-amine] | 39 nM | 14 nM | 2.7 | 445 µM (≈ 220 µg/mL) | 4.6 % free | – | – | – | – | –
Cc1c(OCCNCCCF)ccc(F)c1[C@@H]1c2[nH]c3ccccc3c2C[C@@H](C)N1CCC#N [Example 87, 3-((1R,3R)-1-(6-fluoro-3-(2-((3-fluoropropyl)amino)ethoxy)-2-methylphenyl)-3-methyl-1,3,4,9-tetrahydro-2H-pyrido[3,4-b]indol-2-yl)propanenitrile] | 0.54 nM | 0.065 nM | 3.1 | 71 µM (≈ 33.1 µg/mL) | 1.6 % free | – | – | – | – | –
Cc1c(N(C)CCNCCCF)ccc(F)c1[C@@H]1c2[nH]c3ccccc3c2C[C@@H](C)N1C[C@H](C)C(=O)O [Example 136, (S)-3-((1R,3R)-1-(6-fluoro-3-((2-((3-fluoropropyl)amino)ethyl)(methyl)amino)-2-methylphenyl)-3-methyl-1,3,4,9-tetrahydro-2H-pyrido[3,4-b]indol-2-yl)-2-methylpropanoic acid] | 2 nM | > 300 nM | 1.1 | 328 µM (≈ 168 µg/mL) | 2.1 % free | – | – | – | – | –
C[C@@H]1Cc2c([nH]c3ccccc23)[C@@H](c2c(Cl)ccc(OCCNCCCF)c2F)N1CC(F)(F)F [Example 78, N-(2-(4-chloro-2-fluoro-3-((1R,3R)-3-methyl-2-(2,2,2-trifluoroethyl)-2,3,4,9-tetrahydro-1H-pyrido[3,4-b]indol-1-yl)phenoxy)ethyl)-3-fluoropropan-1-amine] | 1.3 nM | 0.12 nM | 4 | 26 µM (≈ 13.4 µg/mL) | 0.21 % free | – | – | – | – | –
COc1ccc(OC[C@@H](C)NCCCF)cc1[C@@H]1c2[nH]c3ccccc3c2C[C@@H](C)N1CC(F)(F)CO [Example 50, 2,2-difIuoro-3-((1R,3R)-1-(5-((S)-2-((3-fluoropropyl)amino)propoxy)-2-methoxyphenyl)-3-methyl-1,3,4,9-tetrahydro-2H-pyrido[3,4-b]indol-2-yl)propan-1-ol] | 1 nM | 0.81 nM | 2.8 | 461 µM (≈ 240 µg/mL) | 7.1 % free | – | – | – | – | 81%
C[C@@H]1Cc2c([nH]c3ccccc23)[C@@H](c2cccc(OCCNCCCF)c2C#N)N1CC(F)(F)F [Example 69, 2-(2-((3-fluoropropyl)amino)ethoxy)-6-((1R,3R)-3-methyl-2-(2,2,2-trifluoroethyl)-2,3,4,9-tetrahydro-1H-pyrido[3,4-b]indol-1-yl)benzonitrile] | 1.4 nM | 1.5 nM | 3.6 | 150 µM (≈ 73.3 µg/mL) | 2.2 % free | – | – | – | – | –
Cc1c(NCCNCCCF)ccc(F)c1[C@@H]1c2[nH]c3ccccc3c2C[C@@H](C)N1C[C@H](C)C(=O)O [Example 135, (S)-3-((1R,3R)-1-(6-fluoro-3-((2-((3-fluoropropyl)amino)ethyl)amino)-2-methylphenyl)-3-methyl-1,3,4,9-tetrahydro-2H-pyrido[3,4-b]indol-2-yl)-2-methylpropanoic acid] | 160 nM | 16 nM | 0.5 | > 1000 µM | 32 % free | – | – | – | – | –
